For 24 compounds, IC50 results are on record in patent publication US10865191B2, “Heterocyclic compounds useful as modulators of TNF alpha” (BRISTOL-MYERS SQUIBB COMPANY, priority 2015, dated 2020).

The structures appear in SMILES notation. pIC50: −log10 of the molar value.

For orientation: pIC50 means the IC50 on a negative log10 scale, so that one unit is a factor of ten.

For this assay, the target named is TNFα (Homo sapiens, UniProt P01375). The assay can be described thus: TNF induced HEK-Blue assay (NF-kB-driven secreted alkaline phosphatase reporter). The format is cell-based. The following applies: TNFα 0.5 ng/mL, HEK-Blue-CD40L cells, 18 h; read-out: TNF induced HEK-Blue assay IC50 value. An outline of the steps: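 HEK-Blue-CD40L cells (NF-kB-driven SEAP reporter), 20,000/well, added after 30 min pre-incubation of compound (0.004–25 μM final) with TNFα 0.5 ng/mL final at 37 °C; 18 h incubation. SEAP read with QUANTI-Blue at 620 nm; IC50 from 4-parameter logistic fit, normalized to unstimulated and stimulated DMSO controls.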
Sequence of TNFα (P01375 77-233 limits assumed): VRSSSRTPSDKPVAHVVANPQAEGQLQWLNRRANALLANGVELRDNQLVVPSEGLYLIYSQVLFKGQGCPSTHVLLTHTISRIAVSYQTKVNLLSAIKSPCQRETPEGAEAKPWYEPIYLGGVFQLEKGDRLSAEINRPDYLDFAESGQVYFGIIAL
For `Cc1nc2ccc(-c3cnc(C(C)(C)O)nc3)cc2c(N[C@H](C)c2cc(OCCO)ccc2F)c1Cl` [Example 435, (R)-2-(5-(3-chloro-4-((1-(2-fluoro-5-(2-hydroxyethoxy)phenyl)ethyl)amino)-2-methylquinolin-6-yl)pyrimidin-2-yl)propan-2-ol], the pIC50 is greater than 6.00.

For the compound `Cc1nc2ccc(-c3cnc(C(C)(C)O)nc3)cc2c(N[C@H](C)c2cc(CC(=O)O)ccc2F)c1Cl` [Example 436, (R)-2-(3-(1-((3-chloro-6-(2-(2-hydroxypropan-2-yl)pyrimidin-5-yl)-2-methylquinolin-4-yl)amino)ethyl)-4-fluorophenyl)acetic acid], the pIC50 is greater than 6.00. As for `Cc1nc2ccc(-c3cnc(C(C)(C)O)nc3)cc2c(N[C@H](C)c2cccc(OCCO)c2)c1Cl` [Example 437, (R)-2-(5-(3-chloro-4-((1-(3-(2-hydroxyethoxy)phenyl)ethyl)amino)-2-methylquinolin-6-yl)pyrimidin-2-yl)propan-2-ol], the negative logarithm of the IC50 (pIC50) is greater than 6.00. For `Cc1nc2ccc(-c3cnc(C(C)(C)O)nc3)cc2c(N[C@H](C)c2cccc(OCC(=O)O)c2)c1Cl` [Example 438, (R)-2-(3-(1-((3-chloro-6-(2-(2-hydroxypropan-2-yl)pyrimidin-5-yl)-2-methylquinolin-4-yl)amino)ethyl)phenoxy)acetic acid] the value was 5.00 to 6.00.

Consider `Cc1nc2ccc(-c3cnc(C(C)(C)O)nc3)cc2c(N[C@H](C)c2cc(OCC(=O)O)ccc2F)c1Cl` [Example 439, (R)-2-(3-(1-((3-chloro-6-(2-(2-hydroxypropan-2-yl)pyrimidin-5-yl)-2-methylquinolin-4-yl)amino)ethyl)-4-fluorophenoxy)acetic acid], for which the pIC50 is greater than 6.00. In the case of `Cc1nc2ccc(-c3cnc(C(C)(C)O)nc3)cc2c(N[C@H](C)c2ccccc2F)c1Cl` [Example 441, (R)-2-(5-(3-chloro-4-((1-(2-fluorophenyl)ethyl)amino)-2-methylquinolin-6-yl)pyrimidin-2-yl)propan-2-ol] it was greater than 6.00; in that of `Cc1nc2cc(F)c(-c3cnc(C(C)(C)O)nc3)cc2c(N[C@H](C)c2cc(OCCCO)ccc2F)c1Cl` [Example 443, (R)-3-(3-(1-((3-chloro-7-fluoro-6-(2-(2-hydroxypropan-2-yl)pyrimidin-5-yl)-2-methylquinolin-4-yl)amino)ethyl)-4-fluorophenoxy)propan-1-ol], greater than 6.00; in that of `Cc1nc2ccc(-c3cnc(C(C)(C)O)nc3)cc2c(N[C@H](C)c2cc(OCCCO)ccc2F)c1Cl` [Example 444, (R)-3-(3-(1-((3-chloro-6-(2-(2-hydroxypropan-2-yl)pyrimidin-5-yl)-2-methylquinolin-4-yl)amino)ethyl)-4-fluorophenoxy)propan-1-ol], greater than 6.00. In the case of `Cc1nc2cc(F)c(-c3cnc(C(C)(C)O)nc3)cc2c(N[C@H](C)c2cc(CCC(N)=O)ccc2F)c1Cl` [Example 445, (R)-3-(3-(1-((3-chloro-7-fluoro-6-(2-(2-hydroxypropan-2-yl)pyrimidin-5-yl)-2-methylquinolin-4-yl)amino)ethyl)-4-fluorophenyl)propanamide] it was greater than 6.00.

Take `Cc1nc2cc(F)c(-c3cnc(C(C)(C)O)nc3)cc2c(N[C@H](C)c2cc(CCC(=O)O)ccc2F)c1Cl` [Example 446, (R)-3-(3-(1-((3-chloro-7-fluoro-6-(2-(2-hydroxypropan-2-yl)pyrimidin-5-yl)-2-methylquinolin-4-yl)amino)ethyl)-4-fluorophenyl)propanoic acid]: the negative-log IC50 (pIC50) was 5.00 to 6.00. For `Cc1nc2ccc(-c3cnc(N4CCNC(=O)C4)nc3)cc2c(N[C@H](C)c2cc(C(N)=O)ccc2F)c1Cl` [Example 447, (R)-3-(1-((3-chloro-2-methyl-6-(2-(3-oxopiperazin-1-yl)pyrimidin-5-yl)quinolin-4-yl)amino)ethyl)-4-fluorobenzamide] the value was greater than 6.00. For `Cc1nc2cc(F)c(-c3cnc(N4CCNC(=O)C4)nc3)cc2c(N[C@H](C)c2cc(C(N)=O)ccc2F)c1Cl` [Example 448, (R)-3-(1-((3-chloro-7-fluoro-2-methyl-6-(2-(3-oxopiperazin-1-yl)pyrimidin-5-yl)quinolin-4-yl)amino)ethyl)-4-fluorobenzamide] the value was greater than 6.00; for `Cc1nc2cc(F)c(-c3ccc(=O)[nH]c3)cc2c(N[C@H](C)c2cc(Br)ccc2F)c1Cl` [Example 449, (R)-5-(4-((1-(5-bromo-2-fluorophenyl)ethyl)amino)-3-chloro-7-fluoro-2-methylquinolin-6-yl)pyridin-2(1H)-one], greater than 6.00; for `Cc1nc2cc(F)c(-c3ccc(=O)[nH]c3)cc2c(N[C@H](C)c2cc(C#N)ccc2F)c1Cl` [Example 450, (R)-3-(1-((3-chloro-7-fluoro-2-methyl-6-(6-oxo-1,6-dihydropyridin-3-yl)quinolin-4-yl)amino)ethyl)-4-fluorobenzonitrile], greater than 6.00. For `COc1ccc(F)c([C@@H](C)Nc2c(Cl)cnc3ccccc23)c1` [Example 451, (R)-3-chloro-N-(1-(2-fluoro-5-methoxyphenyl)ethyl)quinolin-4-amine] the value was 5.00 to 6.00; for `C=CCc1ccc(F)c([C@@H](C)Nc2c(Cl)cnc3ccccc23)c1` [Example 452, (R)—N-(1-(5-allyl-2-fluorophenyl)ethyl)-3-chloroquinolin-4-amine], 5.00 to 6.00; for `CCC(Nc1c(Cl)cnc2ccccc12)c1ccccc1F` (stereo not drawn) [Example 453, 3-chloro-N-(1-(2-fluorophenyl)propyl)quinolin-4-amine], 5.00 to 6.00. In the case of `C[C@@H](Nc1c(Cl)cnc2ccccc12)c1cc(-c2cnn(C)c2)ccc1F` [Example 454, (R)-3-chloro-N-(1-(2-fluoro-5-(1-methyl-1H-pyrazol-4-yl)phenyl)ethyl)quinolin-4-amine], the negative-log IC50 (pIC50) is greater than 6.00. In the case of `C[C@@H](Nc1c(Cl)cnc2ccccc12)c1cc(-c2cn[nH]c2)ccc1F` [Example 455, (R)-3-chloro-N-(1-(2-fluoro-5-(1H-pyrazol-4-yl)phenyl)ethyl)quinolin-4-amine] it was greater than 6.00; in that of `COc1ccc(F)c([C@@H](C)Nc2ccnc3ccc(Cl)cc23)c1` [Example 456, (R)-6-chloro-N-(1-(2-fluoro-5-methoxyphenyl)ethyl)quinolin-4-amine], 4.60 to 5.00; in that of `C=CCOc1ccc(F)c([C@@H](C)Nc2c(Cl)cnc3ccccc23)c1` [Example 457, (R)—N-(1-(5-(allyloxy)-2-fluorophenyl)ethyl)-3-chloroquinolin-4-amine], 5.00 to 6.00. For `C[C@@H](Nc1c(Cl)cnc2ccccc12)c1cc(OCCCO)ccc1F` [Example 458, (R)-3-(3-(1-((3-chloroquinolin-4-yl)amino)ethyl)-4-fluorophenoxy)propan-1-ol] the value was 5.00 to 6.00; for `C[C@@H](Nc1c(Cl)cnc2ccccc12)c1cc(-c2ccccc2)ccc1F` [Example 459, (R)-3-chloro-N-(1-(4-fluoro-[1,1′-biphenyl]-3-yl)ethyl)quinolin-4-amine], greater than 6.00. For `COc1ccc(-c2ccc(F)c([C@@H](C)Nc3c(Cl)cnc4ccccc34)c2)cn1` [Example 460, (R)-3-chloro-N-(1-(2-fluoro-5-(6-methoxypyridin-3-yl)phenyl)ethyl)quinolin-4-amine] the value was greater than 6.00.
